Source: paper PMC5665643, “CHIP as a membrane-shuttling proteostasis sensor” (eLife, 2017)
“Also recorded” adds a separate entry of the source.

Experiments:
[1] = test system: EGFP-CHIP in murine embryonic fibroblasts; experiment: EGFP-CHIP relocalization to membranes in murine embryonic fibroblasts (fluorescence microscopy); type: cell-based; conditions: N = 3; for EGFP-CHIP relocalization to the plasma membrane: 20 μM inhibitor for 4 hr, 37°C, serum-free medium, without fixation, EGFP as control, ***p<0.001, chi-square
CHIP [2] = experiment: Lipid-binding assay (membrane-immobilized lipids, lipid arrays); set-up: species or system Human; conditions: for CHIP binding to phospholipid on lipid array: lipid strips/PIP strips, 0.5 µg/ml wild-type chaperone-free CHIP, 1 hr at RT, anti-C-CHIP antibody
Procedure: (§1) Human recombinant full length CHIP and its truncated versions were purified from Escherichia coli BL21 cells using Glutathion Sepharose 4B (GE Healthcare). Sepharose-bound GST-CHIP was subjected to overnight treatment with PreScission protease and the released tag-free protein was collected. Size exclusion chromatography on a HiLoad Superdex 200 column (GE Healthcare) followed to ensure the purity and homogeneity of proteins. All CHIP variants were kept in HSP70 buffer (25 mM HEPES KOH pH 7.5, 150 mM KCl, 5 mM MgCl2, 5% glycerol, 1 mM DTT).
Membrane-immobilized lipids (Membrane lipid strips P-6002 and PIP strips P-6001) were purchased from Echelon Research Laboratories. The strips were incubated with blocking buffer (3% fatty acid free BSA, 0.1% (v/v) Tween-20 in PBS pH 7.5) for 1 hr at RT. 0.5 µg/ml of purified wild-type or mutant CHIP was added in blocking buffer and incubated for 1 hr at RT. Strips were washed and bound proteins were detected using anti-C-CHIP antibody. For competition experiments, ten times molar excess of C-terminal HSP70 was added to CHIP in blocking buffer.

CHIP [3] = experiment: Liposome pelleting assay, effect of lipids and HSP70-C on CHIP association; type: binding, Human
Procedure: as §1
Human C-terminal HSP70 6xHis-tagged N-terminally was purified from Escherichia coli BL21 cells using 1 ml HisTrap column (GE Healthcare). Bound protein was eluted by applying an imidazole gradient. Fractions containing the protein were subjected to size exclusion chromatography using HiLoad Superdex 200 in HSP70 buffer. His-NQO1, His-UbcH5a, His-Uev1a and His-Ubc13 were purified similarly except that PBS/1 mM DTT was used during size exclusion chromatography. Purity of recombinant protein was evaluated by SDS-PAGE and Coomassie BB G-250 (CBB) staining. Concentration of proteins was determined measuring absorbance at 280 nm and using ProtParam (ExPASy) to calculate respective extinction coefficients. Proteins were aliquoted, snap-frozen and stored at −80°C.
Liposomes were prepared by mixing 1,2-dioleoyl-sn-glycero-3-phosphocholine (DOPC) with indicated amount (wt/wt) of either 1,2-dipalmitoyl-sn-glycero-3-phosphate (phosphatidic acid) or (wt/wt) 1,2-dipalmitoyl-sn-glycero-3-phosphoinositol-4-phosphate (PI4P) in a 1.5 ml reaction tube (Eppendorf). Lipid mixtures were dried under a nitrogen stream and kept for 1 hr under vacuum. Liposomes were rehydrated in 1 ml filtered reconstitution buffer (25 mM HEPES KOH pH 7.5, 50 mM NaCl) to a concentration of 10 mM lipids. Liposomes were reconstituted by shaking at 2000 rpm for 1 hr at 50°C, followed by sonication for 1 hr at 50°C in a water bath. The liposome suspension was subjected to five freeze-thaw cycles in liquid nitrogen to promote unilamellar vesicle formation, aliquoted in 200 µl and pulse-sonicated for 8 s at 45% output with MS72 sonotrode (Bandelin) to create a population of homogenously sized liposomes as determined using NanoSight (Malvern Instruments). Sonicated liposomes were pooled, aliquoted again, snap-frozen and stored at −80°C.
2 mM liposomes were mixed with 2 µM recombinant protein in 50 µl reconstitution buffer. The suspension was incubated shaking at 450 rpm for 30 min at 37°C. Liposomes with bound protein were sedimented by ultracentrifugation at 100,000 g for 30 min at 25°C. Liposome pellet was washed with 50 µl of reconstitution buffer and sedimented again at 100,000 g for 30 min at 25°C. The pellet was resuspended in 10 µl reconstitution buffer, resolved by SDS-PAGE and analyzed by CBB staining. Images were acquired with ChemiDoc MP imaging system and quantified using Image Lab 5.0 software (both from Bio-Rad Laboratories). For competition assays, indicated amounts of C-terminal HSP70 were preincubated with 2 µM CHIP for 20 min at 37°C prior to co-sedimentation.

[4] = biological target: C-terminal Hsp70-interacting protein (CHIP), human recombinant full length, wild type, tag-free (human) (UniProt Q9UNE7)
[5] = test system: EGFP-CHIP-K30A in murine embryonic fibroblasts; experiment: Release of EGFP-CHIP-K30A from cellular membranes (PLD inhibitors); type: cell-based; conditions: 12 hr inhibitor treatment in serum-free DMEM, without fixation; *p<0.05 (chi-square); N = 4
[6] = biological target: T1, C-terminal Hsp70-interacting protein (CHIP), human recombinant full length, wild type, tag-free (human, UniProt Q9UNE7 1-303); experiment: ITC; 10 µM protein in the cell, 200 µM GPTIEEVD peptide in the syringe, 25 injections of 8 µl every 3 min, 37°C, HSP70 buffer (25 mM HEPES KOH pH 7.5, 150 mM KCl, 5 mM MgCl2, 5% glycerol, 1 mM DTT); independent binding model; conditions: both partners purified
T1 construct: also called WT; wild-type CHIP; source: E. coli BL21, purified (Glutathion Sepharose 4B, PreScission protease, SEC on Superdex 200)
T1 sequence (looked up): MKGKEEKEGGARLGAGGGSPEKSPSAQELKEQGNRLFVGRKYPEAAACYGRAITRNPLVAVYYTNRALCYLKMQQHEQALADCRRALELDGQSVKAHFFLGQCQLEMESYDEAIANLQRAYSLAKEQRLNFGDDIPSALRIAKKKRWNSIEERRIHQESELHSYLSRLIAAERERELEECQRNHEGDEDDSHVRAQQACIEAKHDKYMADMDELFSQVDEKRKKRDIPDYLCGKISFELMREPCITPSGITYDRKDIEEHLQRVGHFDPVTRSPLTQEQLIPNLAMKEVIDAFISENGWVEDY

[7] = Liposome pelleting assay, binding of CHIP and truncated variants to liposomes; conditions: N = 3
Text: For mammalian expression of EGFP, the expression vector pEGFP-N1 from Clontech (Mountain View, CA) was used. N-terminal EGFP-CHIP fusion protein was constructed by cloning human CHIP coding sequence in pEGFP-C2 vector (Clontech) using HindIII and BamHI restriction sites. A fusion between the N-terminalβ−1,4-galactosyltransferase1 and EGFP was used as a marker of the Golgi apparatus, farnesylated EGFP as a marker of plasma membrane (both constructs from Clontech). Untagged and 3xFLAG-tagged human CHIP for mammalian expression were constructed in pCMV-10 vector (Sigma-Aldrich). HSP70 was amplified from human cDNA and cloned into pcDNA3. 1 expression vector without a tag. HSP70 lacking the last amino acid (HSP70ΔD) was prepared by site-directed mutagenesis. Vectors of full-length CHIP, UbcH5a and mutant NQO1 for bacterial expression were prepared as described ([Martínez-Limón et al., 2016]). The TPR domain bacterial expression vector (TPR) was created by exchanging glutamate152 codon to a stop codon in the full-length CHIP vector. CHIP without TPR domain (ΔTPR) was cloned by deleting the sequence between serine25 and argininge130 by means of PCR. […]
Liposomes were prepared by mixing 1,2-dioleoyl-sn-glycero-3-phosphocholine (DOPC) with indicated amount (wt/wt) of either 1,2-dipalmitoyl-sn-glycero-3-phosphate (phosphatidic acid) or (wt/wt) 1,2-dipalmitoyl-sn-glycero-3-phosphoinositol-4-phosphate (PI4P) in a 1.5 ml reaction tube (Eppendorf). […] The liposome suspension was subjected to five freeze-thaw cycles in liquid nitrogen to promote unilamellar vesicle formation, aliquoted in 200 µl and pulse-sonicated for 8 s at 45% output with MS72 sonotrode (Bandelin) to create a population of homogenously sized liposomes as determined using NanoSight (Malvern Instruments). […]
2 mM liposomes were mixed with 2 µM recombinant protein in 50 µl reconstitution buffer. […] The pellet was resuspended in 10 µl reconstitution buffer, resolved by SDS-PAGE and analyzed by CBB staining. Images were acquired with ChemiDoc MP imaging system and quantified using Image Lab 5.0 software (both from Bio-Rad Laboratories). […]

C=CCNC1=C2C[C@@H](C)C[C@H](OC)[C@H](O)[C@@H](C)/C=C(\C)[C@H](OC(N)=O)[C@@H](OC)/C=C\C=C(/C)C(=O)NC(=CC1=O)C2=O [17-AAG, 17-(Allylamino)−17-demethoxygeldanamycin]
EGFP-CHIP relocalization to the plasma membrane [1]: mimic the heat shock effect in regard to CHIP relocalization to membranes in murine fibroblasts; also recorded: leads to the appearance of EGFP-CHIP, but not of EGFP, at the plasma membrane

HSP70-C: last 260 amino acids of human HSPA1A, C-terminal domain of HSP70
CHIP binding to lipid arrays in the presence of HSP70-C (CHIP [2]; ten-fold molar excess HSP70-C, 0.5 µg/ml CHIP, RT): blocks interaction of CHIP with phospholipids; also recorded: complete loss of binding to phosphatidylinositol monophosphates and only residual interaction with phosphatidic acid | inhibition of CHIP interaction with liposomes (CHIP [3]; 1 μM HSP70-C (substoichiometric), preincubated with 2 µM CHIP 20 min at 37°C, N = 4): efficiently prevented CHIP from interacting with liposomes | CHIP association with liposomes, % of control (CHIP [3]; equimolar HSP70-C, preincubated with 2 µM CHIP 20 min at 37°C, N = 4): ca. 30%

C-terminal domain of HSP70, 260 amino acids (HSP70-C) (from UniProt P0DMV8 382-641) (domain or fragment)
association of 2 µM CHIP with liposomes in the pelleting assay after preincubation with HSP70-C (1 µM, substoichiometric, to an equimolar amount), relative to the control without HSP70-C (% of the control) [4]: 30

CCCCCCCCCCCCCCCC(=O)OC[C@H](COP(=O)(O)O[C@H]1[C@H](O)[C@@H](O)[C@H](OP(=O)(O)O)[C@@H](O)[C@H]1O)OC(=O)CCCCCCCCCCCCCCC [PI4P, 1,2-dipalmitoyl-sn-glycero-3-phosphoinositol-4-phosphate]
CHIP binding to phospholipid on lipid array (CHIP [2]): especially PI4P | CHIP association with DOPC-liposomes (pelleting), 1% PI4P (CHIP [3]; 1% PI4P, 2 mM liposomes, 2 µM CHIP, 30 min at 37°C, N = 3): weakly | CHIP association with DOPC-liposomes (pelleting), 5% PI4P (CHIP [3]; 5% PI4P, 2 mM liposomes, 2 µM CHIP, 30 min at 37°C, ***p<0.001, N = 3): strongly enhanced association of liposomes with CHIP; also recorded: strongly enhance CHIP association with DOPC-liposomes

N#Cc1ccc(COC[C@H]2O[C@@H](n3c(NCc4ccc(Cl)c(Cl)c4)nc4c(N)ncnc43)[C@H](O)[C@@H]2O)cc1 [VER-155008]
EGFP-CHIP relocalization to the plasma membrane [1]: mimic the heat shock effect in regard to CHIP relocalization to membranes in murine fibroblasts; also recorded: leads to the appearance of EGFP-CHIP, but not of EGFP, at the plasma membrane

C[C@@H](CN1CCC(n2c(=O)[nH]c3cc(Cl)ccc32)CC1)NC(=O)c1ccc2ccccc2c1 [VU0155069]
release of EGFP-CHIP-K30A from membranes into the cytosol [5]: efficiently released chaperone-free CHIP into the cytosol

O[As](O)O [arsenite]
CHIP relocalization to membranes [1]: does not induce CHIP relocalization to membranes in murine fibroblasts; also recorded: not induced by arsenite treatment

phosphatidylinositol-3,4,5-trisphosphate
CHIP binding to phospholipid on lipid array (CHIP [2]): no binding to phosphatidylinositol-3,4,5-trisphosphate detected

O=C(NCCN1CCC(n2c(=O)[nH]c3ccccc32)CC1)c1cc2cc(F)ccc2[nH]1 [FIPI]
release of EGFP-CHIP-K30A from membranes into the cytosol [5]: efficiently released chaperone-free CHIP into the cytosol

B1: C-terminal HSP70 octapeptide GPTIEEVD (peptide)
peptide: GPTIEEVD
notes: last eight residues of HSP70 (HSPA1A); also called HSP70 peptide; HSP70 C-terminal peptide; source: synthetic peptide (custom-synthetized by GenScript)
Kd [6]: 5 µM

B2: TPR domain: glutamate152 codon exchanged to a stop codon in full-length CHIP (protein, UniProt Q9UNE7 1-151, looked up, fragment)
chain: MKGKEEKEGGARLGAGGGSPEKSPSAQELKEQGNRLFVGRKYPEAAACYGRAITRNPLVAVYYTNRALCYLKMQQHEQALADCRRALELDGQSVKAHFFLGQCQLEMESYDEAIANLQRAYSLAKEQRLNFGDDIPSALRIAKKKRWNSIE
modifications: TPR domain
notes: glutamate152 codon exchanged to a stop codon in full-length CHIP
binding capacity versus full-length CHIP ([7]; 5% PA-containing DOPC-liposomes): still surpassed the full-length CHIP in binding capacity | binding efficiency relative to full-length protein ([7]; isolated TPR domain, 20% PA-containing liposomes, 2 µM protein): ca. 160%
